Source: US20240216311A1, “FULLY-DILUTABLE, SELF-MICROEMULSIFYING DELIVERY SYSTEMS (SMEDDS) FOR POORLY WATER-SOLUBLE POLAR SOLUTES” (THE GOVERNING COUNCIL OF THE UNIVERSITY OF TORONTO, priority 2020, published 2024)
Where two headings read alike, the source gives them in different places.

Tests used:
[1] = Characteristic curvature (Cc) by salinity phase scans with reference surfactant C9E5; format: physicochemical; conditions: for Cc (characteristic curvature): methodology of Example 1, C9E5 as reference surfactant; for dS*/dx: polar oil in mixtures with C9E5, heptane (cyclohexane for CBD) as oil
Experimental: The characteristic curvature (Cc) of the candidate hydrophilic linker with extremely negative Cc (Cc<−5) was determined following the mixed reference and test surfactant method used by Zarate et al.. […] The salinity phase scans were conducted by vortex-mixing 2 mL of the aqueous surfactant solution, containing a set value of sodium chloride (g NaCl/100 mL of aqueous surfactant solution or % w/v NaCl) with 2 mL of n-heptane at room temperature in 2-dram vials sealed with a silicone-lined cap. […] The difference between the initial volume added to the vial (2 mL), and the excess phase volume was considered the volume solubilized. The ratio between the volume solubilized (in mL) and the total mass of surfactant mixture (0.2 g) was reported as the solubilization parameter (SP) for the given phase at the set salinity.

[2] = cited from earlier work; for Polar area: from ChemSpider; for Dipole moment: from Tantishaiyakul et al. [33]
[3] = literature value, cited from earlier work
[4] = adapted from [21]; cited from earlier work
[5] = from Drugbank, nonylphenol from ChemSpider

## CC(C)Cc1ccc(C(C)C(=O)O)cc1 (racemic) [Ibuprofen]
[1]
  Cc (characteristic curvature): +4.9
[2]
  Polar area: 37 Å^2
  Dipole moment: 1.9 Debye
[2]; [5]
  Number of H-acceptors: 2
  Number of H-donors: 1

## CCOC(=O)c1ccc(N)cc1 [Benzocaine]
[1]
  Cc (characteristic curvature): +1.6
  dS*/dx: −27 % w/v NaCl

## C=C(C)[C@@H]1CCC(C)=C[C@H]1c1c(O)cc(CCCCC)cc1O [Cannabidiol (CBD), Cannabidiol]
[1]
  Cc (characteristic curvature): +2.6
  dS*/dx: −38 % w/v NaCl
[2]
  Polar area: 40 Å^2
  Dipole moment: 1.9 Debye
[2]; [5]
  Aqueous solubility: 0.0013 wt %
  Number of H-acceptors: 2
  Number of H-donors: 2
  pKa: Neutral

## C=CCc1ccc(O)c(OC)c1 [Eugenol]
[1]
  Cc (characteristic curvature): +2.8
  dS*/dx: −37 % w/v NaCl
[2]
  Polar area: 29 Å^2
  Dipole moment: 2.8 Debye
[2]; [5]
  Number of H-acceptors: 2
  Number of H-donors: 1
  pKa: Neutral

## CCCCCCCC/C=C\CCCCCCCC(=O)OCC(O)CO (centres unmarked) [Glycerol monooleate]
[3]
  Cc (characteristic curvature): +6.6 ± 1.5
[3]; listed as Peceol™
  Cc (characteristic curvature): +6.6

## CCCCCCCC/C=C\CCCCCCCC(=O)O [Oleic acid]
[3]
  Cc (characteristic curvature): 0 ± 0.1

## CCCCCCCC(=O)[O-].[Na+] [Sodium octanoate]
[3]
  Cc (characteristic curvature): −2.1 ± 0.1
[4]
  L: 12 Å
  vs/as: 4.6 Å

## CCCCCCCC/C=C\CCCCCCCC(=O)[O-].[Na+] [Sodium oleate]
[3]
  Cc (characteristic curvature): −1.7 ± 0.1
[4]
  L: 30 Å
  vs/as: 8.4 Å

## CCCCCCCC/C=C\CCCCCCCC(=O)OCCOCC(OCCO)C1OCC(OCCO)C1OCCO (centres unmarked) [Tween 80]
[3]
  Cc (characteristic curvature): −3.0 ± 0.7
[4]
  L: 34 Å
  vs/as: 25.8 Å

## Disodium stearoyl capryl glutamate
[3]
  Cc (characteristic curvature): −5 ± 0.2
[4]
  vs/as: 7.9 Å

## Nonylphenol
[1]
  Cc (characteristic curvature): +7.2
[2]
  Polar area: 20 Å^2
  Dipole moment: 1.6 Debye
[2]; [5]
  Number of H-acceptors: 2
  Number of H-donors: 1
  pKa: Neutral
[2]; octanol-water, from Drugbank, nonylphenol from ChemSpider
  logP: 5.8

## Sorbitan monolaurate [Sorbitan monolaurate, Span 20]
[3]
  Cc (characteristic curvature): +3.5 ± 0.8

## Sorbitan monooleate [Sorbitan monooleate (Span 80)]
[3]
  Cc (characteristic curvature): +5.0 ± 1^

## Sucrose distearate
[3]
  Cc (characteristic curvature): +4 ± 0.2

## Sucrose palmitate
[3]
  Cc (characteristic curvature): −0.8 ± 0.2
